Counter-ions that a name gives are not always drawn.
Key:
[1] = tested on: CCl4-induced liver injury; settings: cited from earlier work
[2] = tested on: UUO-induced renal fibrosis; assay: Mouse model of UUO-induced renal fibrosis; assay type: in vivo; settings: for Reduction of UUO-induced increase in Collagen Volume Fraction (±SEM) vs UUO control: p < 0.05
Description: Unilateral ureter obstruction is a commonly used experimental model of kidney injury, in which interstitial inflammation, tubular cell injury/death and fibrosis, ensue. The protocol was approved by Plato BioPharma, Inc. IACUC (PBI; approval number 2013–04). The care and use of animals was conducted in accordance with the NIH Guide for the Care and Use of Laboratory Animals (2010), […] Guidelines on Euthanasia (2007), Office of Laboratory Animal Welfare Institutional Animal Care and Use Committee Guidebook (2002), Public Health Service Policy on Humane Care and Use of Laboratory Animals (2002), PBI standard operating procedures on a) moribund sacrifice, b) vivarium maintenance and animal care, and c) animal handling and dosing. Anesthesia was performed by isoflurane […]; animals were euthanized by diaphragm laceration followed by heart laceration while under isoflurane anesthesia.
(§1) Male CD-1 mice (n = 51; 7–8 weeks of age; Charles River Laboratories, USA) were allocated to weight-matched treatment groups on Day -1 (1 day prior to either sham [one group] or permanent right UUO surgery [five groups] via aseptic laparotomy). From Days -1 to 4, mice received phosphate-buffered saline (PBS) IP QD, apart from a positive-control group, which received 1D11 (anti-TGF-beta1 antibody) 3 mg/kg IP QD. From Days 0 to 5, mice received vehicle control (sham surgery, UUO-control and UUO+positive-control groups) or CVC 7 mg/kg/day (CVC7), CVC20 or CVC100 PO BID (S1 Table). The CVC100 group was terminated due to poor clinical condition (6/9 animals died and 3/9 euthanized prior to end of study). […]
In the UUO model, ten images/depth/kidney were assessed in a blinded fashion using Axio Imager.A2 (Zeiss, USA) light microscopy (at 200x magnification to enable 60–70% sampling of renal cortical area) and quantified by a composite Collagen Volume Fraction (CVF [% total area imaged]) score expressed as the average positive stain across three anatomically distinct ([…] apart) tissue sections, or depths, from the obstructed kidney.
In the UUO model, frozen renal cortical tissue biopsies were hydrolyzed and centrifuged, and the supernatant was analyzed by OD absorbance at 560 nm on a SpectraMax® 190 (Molecular Devices, USA). Standard curves for conversion of ODs to concentrations were generated using linear regression and sample concentrations were determined using SoftMax® Pro5 software (Molecular Devices, USA).
In the UUO model, mRNA expression levels in renal cortical tissue were evaluated using the QuantiGene® Plex 2.0 profiling platform (Affymetrix, USA). […]
In the UUO model, data are expressed as mean ±SEM. […]

[3] = tested on: CCL2-mediated chemotaxis of activated murine macrophages (F4/80+/CD11b+); assay: Ex vivo CCL2-induced chemotaxis of activated mouse macrophages (Transwell); assay type: cell-based; settings: 2 hours
Description: Mouse monocyte migration in response to CVC treatment was assessed ex vivo in triplicate. TG was injected intraperitoneally into male C57BL/6 mice (n = 3; 8–10 weeks of age; Jackson Laboratory, USA) and activated macrophages were collected 48 hours later by peritoneal lavage. Chemotaxis was assayed using a Transwell® Chamber (Costar, USA) with a 5 μm-pore size polycarbonate filter, as previously described. Briefly, cells were incubated for 2 hours in the presence of 1 nM CCL2 and/or 1 μM CVC (dissolved in dimethyl sulfoxide with 0.5% acetic acid and diluted 1:1000 with serum-free Roswell Park Memorial Institute-1640 medium and 0.5% bovine serum albumin). Cells were harvested from the lower compartment and analyzed by flow cytometry to enumerate F4/80^+CD11b^+ macrophages using a 3-laser BD FACSCanto™ (BD Biosciences, Canada). Results were analyzed using FlowJo software (Tree Star Inc., USA).
In the peritonitis mouse model, one-way analysis of variance with post-hoc Dunnett’s test was performed, using GraphPad Prism® (GraphPad Software, Inc., USA), on differential cell counts obtained from lavage in treatment groups versus the vehicle-control group. For the ex vivo migration of mouse monocytes, statistical significance was determined by a Student’s t test.

[4] = in rats; cited from earlier work
[5] = CVC plasma levels in the UUO model (LC/MS/MS); assay type: in vivo; settings: n = 8, ~4 hours post-dose (approximate Cmax), Day 5
Description: as §1, with “study). Of note, a similar dose of CVC100 administered for 3 weeks was well tolerated in the mouse NASH model; therefore, it is plausible that the laparotomy and UUO surgery in combination with CVC may have contributed to the loss of animals.” for “study).”
CVC plasma levels (minimum and maximum) were determined by KCAS Bioanalytical Services, USA, using a validated liquid chromatography-tandem mass spectrometry (LC/MS/MS) plasma method (50 μL assay, range 10.0−1920.0 ng/mL).

CCR5 = settings: cited from earlier work

CCCCOCCOc1ccc(-c2ccc3c(c2)/C=C(/C(=O)Nc2ccc([S@@+]([O-])Cc4cncn4CCC)cc2)CCCN3CC(C)C)cc1 [CVC, cenicriviroc mesylate]
Infiltration of Ly6Chi monocyte-derived macrophages into the liver ([1]; CCl4 model, preliminary data): significantly decreased | Necrotic area ([1]; acute CCl4 model): significant reduction | Effect on UUO-induced increase in obstructed kidney hydroxyproline content ([2]; CVC7, CVC20 PO BID): did not affect | Reduction of UUO-induced increase in Collagen Volume Fraction (±SEM) vs UUO control ([2]; CVC7 PO BID Days 0-5): 28.6%±8.8 | Inhibition of UUO-induced increases in obstructed renal cortical mRNA expression of fibrogenic genes ([2]; CVC7 and CVC20, trend, relative to UUO control): did not reach statistical significance | Reduction of UUO-induced increase in Collagen Volume Fraction (±SEM) vs UUO control ([2]; CVC20 PO BID Days 0-5, single outlier removed): 31.8%±6.8 | Average fold change in migrating cells (±SD) compared to untreated and unstimulated cells ([3]; CCL2-stimulated (1 nM) cells treated with CVC 1 μM): 0.8±0.2 fold | Average fold change in migrating cells (±SD) compared to untreated and unstimulated cells ([3]; unstimulated cells treated with CVC 1 μM): 0.7±0.4 fold | Half-life [4]: 4 to 5 h | CVC concentration (mean±SD), plasma ([5]; CVC7 BID): 251 ± 364 ng/mL | CVC concentration (mean±SD), plasma ([5]; CVC20 BID): 971 ± 507 ng/mL | Occupancy for CCR5 (spleen) in proinflammatory monocytes (CCR5; CVC 250 nM, murine cryopreserved PBMC ex vivo): 87% | CCR5 occupancy (CCR5; CVC concentrations of 250 nmol/L or higher, mouse monocytes and macrophages ex vivo): > 87%
